Laboratory results from US10336732B2, “1-heterocyclyl isochromanyl compounds and analogs for treating CNS disorders” (Sunovion Pharmaceuticals Inc., priority 2015, dated 2019).

System: sigma (non-selective)
Assay: In vitro radioligand binding assay, sigma (non-selective), [3H]DTG, Jurkat cells
Details: Jurkat cells (endogenous)
Protocol: Certain compounds were tested by in vitro binding assays using standard procedures. […] These receptors and assays are well known to those skilled in the art, as exemplified by the following: Abramovitz, M. et al. (2000), Biochem. Biophys. Acta., 1483: 285-293 (EP4, IP (PGI2)); Aharony, D. et al. (1993), Mol. Pharmacol., 44: 356-363 (NK2); Ardati, A. et al. (1997), Mol. Pharmacol., 51: 816-824 (NOP (ORL1)); Bignon, E. et al. (1999), J. Pharmacol. Exp. Ther. 289: 742-751 (CCK1 (CCKA)); Bloomquist, B. T. et al. (1998), Biochem. Biophys. Res. Commun., 243: 474-479 (GAL2); Brockhaus, M. et al. (1990), Proc. Natl. Acad. Sci. U.S.A., 87: 3127-3131 (TNF-α); Brown, G. B. (1986), J. Neurosci., 6: 2064-2070 (Na+ channel (site 2)); Buchan, K. W. et al. (1994), Brit. J. Pharmacol., 112: 1251-1257 (ETA); Cesura, A. M. et al. (1990), Mol. Pharmacol., 37: 358-366 (MAO-A); Choi, D. S. et al. (1994), FEBS Lett., 352: 393-399 (5-HT2B); Clark, A. F. et al. (1996), Invest. Ophtalmol. Vis. […]

SMILES	sigma percent inhibition of specific binding
Fc1ccc2c(c1)CCO[C@H]2[C@@H]1CCN1 [Compound I-90, (S)-2-((R)-6-fluoroisochroman-1-yl)azetidine]	63%
Fc1cccc2c1CCO[C@@H]2[C@@H]1CCN1 [Compound I-94, (S)-2-((S)-5-fluoroisochroman-1-yl)azetidine]	sigma (85%)
